{"source": "patent US12569506B2", "about": "“Methods of treating osteonecrosis with LLP2A-bisphosphonate compounds” (The Regents of the University of California, priority 2016, dated 2026)", "key": {"[1]": {"tested_on": "dexamethasone-treated mice", "assay": "30 and 45 day prevention study: incidence of glucocorticoid-induced osteonecrosis", "assay_type": "in vivo, BALB/c mice", "details": "30 or 45 days; Dex + LLP2A-Ale 250 or 500 μg/kg, or Dex + 40 μg/kg hPTH five times a week (FIG. 12)", "procedure": "FIG. 12. Reduction in incidence of glucocorticoid-induced osteonecrosis in mice treated with recombinant LLP2A-Ale. Mice were randomized into placebo (PL) (fresh water), dexamethasone (Dex) 4 mg/l in drinking water, Dex+250 μg/kg LLP2A-Ale, Dex+500 μg/kg LLP2A-Ale, or Dex+40 μg/kg hPTH (1-34) groups for a 30 day treatment period or a 45 day treatment period. The incidence of Dex-induced osteonecrosis was 57% on day 30 and 73% on day 45.\n(§1) The efficacy of LLP2A-Ale and hPTH (1-34) was evaluated over a 30 and 45 day study using a mouse model of glucocorticoid-induced osteonecrosis. Seven week-old male BALB/c mice were randomized into Placebo group (fresh water), glucocorticoid only (4 mg/L dexamethasone (Dex) in drinking water), Dex+250 μg/kg LLP2A-Ale, Dex+500 μg/kg LLP2A-Ale, or Dex+40 μg/kg hPTH (administered five times a week) for 30 or 45 days. At day 30 or 45, the mice were sacrificed. Study endpoints included histological evidence of osteonecrosis, bone mass, and prevalent blood vessels (CD31 and Endomucin expression) in the distal femur, and was performed as set forth in Example 2. Non-parametric Kruskal-Wallis tests were used to determine the differences between the groups."}, "[2]": {"tested_on": "osteocytes", "assay": "Cortical bone osteocyte apoptosis (TUNEL) in glucocorticoid-treated mice", "assay_type": "in vivo", "details": "GC 56 days, one dose of LLP2A-Ale at day 28, sacrifice day 56, TUNEL (FIG. 5)", "procedure": "FIG. 5. Cortical bone osteocyte apoptosis. Mice were treated with PL for 56 days, GC alone for 56 days or GC alone for 28 days, then GC plus one dose of LLP2A-Ale at day 28. Animals were sacrificed at day 56 and the percent of osteocytes that were apoptotic were measured.\nOsteocytes die from loss of blood supply and also from glucocorticoid treatment. […] The animals were sacrificed at day 56, the bones were decalcified and then TUNEL assays were performed to determine the number of apoptotic osteocytes. Glucocorticoid treatment alone, at day 56 increased the number of osteocytes that were apoptotic."}, "[3]": {"tested_on": "CD31 and Endomucin expression", "assay": "30 and 45 day prevention study: blood vessels in the distal femur (CD31 and Endomucin expression)", "assay_type": "in vivo, BALB/c mice", "details": "30 and 45 day study, conclusion", "procedure": "as §1"}, "[4]": {"tested_on": "dexamethasone-treated mice", "assay": "Empty lacunae density in distal femoral epiphysis, 90 day model", "assay_type": "in vivo, BALB/c mice", "details": "day 90", "procedure": "FIG. 8A-8B. Empty lacunae density of femurs from in dexamethasone-treated mice. Mice treated with placebo (PL), dexamethasone alone (Dex), Dex+250 μg/kg LLP2A-Ale, Dex+500 μg/kg LLP2A-Ale, or Dex+750 μg/kg LLP2A-Ale as described above for FIG. 7 were assessed for empty lacunae density within the distal femoral epiphysis region. Empty lacunae density was calculated by determining the number of empty lacunae in the entire distal femoral epiphysis region divided by the total number of osteocytes within the same region for each specimen. In the Dex only group, 75% of the samples had 10% or more empty lacunae, as compared to 44-62% of the samples in LLP2A-Ale-treated groups. A higher number of LLP2A-Ale 250 μg/kg, LLP2A-Ale 500 μg/kg, and LLP2A-Ale 750 μg/kg—treated samples had less than 10% empty lacunae as compared to Dex only treatment.\nBoth the right and left distal femurs were fixed in 10% neutral buffered formalin and were shaken for 3 days, then decalcified in 5% EDTA until the bones were fully decalcified. The specimens were then processed in ascending concentrations of ethanol and embedded in paraffin. Tissue sections were cut into 5 microns sections, stained with hematoxylin and eosin and evaluated for the presence of osteonecrosis by bright field microscopy at 20× magnification. […] Osteonecrosis was detected using modified criteria reported by Yang el al., (a mouse model for glucocorticoid-induced osteonecrosis: Effect of a steroid holiday. J Orthop Res. 2009; 27:169-75) which defines osteonecrosis as requiring all of the following changes: (1) empty lacunae, (2) pyknotic osteocyte nuclei in areas of empty lacunae and necrosis of adjacent bone marrow, (3) presence of excessive fat cells in the bone marrow, (4) cartilage degradation and (5) presence of fibrin thrombi in the blood vessels. In addition, trabecular bone volume, adipose volume, sinusoid volume and osteoblast surface at the distal femoral epiphyses were measured. Empty lacunae density was calculated by empty lacunae/total osteocytes within the entire distal femoral epiphysis region for each sample. […]"}}, "note": "“Also recorded” adds a separate entry of the source.", "data": [{"compound": "Cc1ccccc1NC(=O)Nc1ccc(CC(=O)N[C@@H](CCCCNC(=O)/C=C/c2cccnc2)C(=O)N[C@@H](CCCC(=O)O)C(=O)NC2(C(=O)NCCOCCOCCNC(=O)CCC(=O)NCCOCCOCCNC(=O)CCC(=O)N[C@@H](CCCCNC(=O)[C@H](N)CSC3CC(=O)N(CC4CCC(C(=O)NCCCC(O)(P(=O)(O)O)P(=O)(O)O)CC4)C3=O)C(N)=O)CCCCC2)cc1", "note": "(some centres unmarked) [LLP2A-Ale]", "values": [{"measurement": "Prevalence/incidence of glucocorticoid-induced osteonecrosis lesions (in words)", "setting": "[1]", "value": "prevented incident GC-induced osteonecrosis lesions; also recorded: reduced the incidence and severity of osteonecrosis; also recorded: prevented glucocorticoid-induced osteonecrotic lesions"}, {"measurement": "Cortical bone osteocyte apoptosis (percent of osteocytes apoptotic)", "setting": "[2]", "value": "prevented osteocyte apoptosis"}, {"measurement": "Vascular integrity of the distal femur", "setting": "[3]", "value": "maintained the vascular integrity"}, {"measurement": "Samples with less than 10% empty lacunae", "setting": "[4]; LLP2A-Ale 250, 500, 750 μg/kg vs Dex only", "value": "more samples; also recorded: higher number"}, {"measurement": "Samples with 10% or more empty lacunae", "setting": "[4]; distal femoral epiphysis, Dex only vs LLP2A-Ale 250, 500, 750 μg/kg groups (FIG. 8A-B)", "value": "44-62%"}]}]}
